Several values for one entry are separate records, joined by “and”; a condition that tells them apart may be missing. Equal values may be shown once.
Tests used:
PI3Kδ = molecular target: T1, PI3Kδ (Homo sapiens, UniProt O00329); test: ADP-Glo Kinase Assay; type: biochemical
T1 construct: purchased Merck Millipore
Protocol: The potency and selectivity of CPL302-253 against different isotypes of class I PI3K were assessed using ADP-Glo Kinase Assay (Promega) according to manufacturer’s protocol. PI3Kα, PI3Kβ, PI3Kδ, PI3Kγ were purchased from Merck Millipore. The inhibition of examined kinases activity was evaluated by measuring their ability to converse ATP to ADP in the presence of decreasing doses of tested compound (from 400 μM to 0,00004 μM). Kinases were mixed with 1 mM PIP2:PS substrate (Phosphoinositol-4,5-bisphosphate (PIP2) lipid vesicles with phosphoserine (PS), Thermofisher Scientific) and 30 μM ATP in an assay buffer (50 mM HEPES pH 7.5,50 mM NaCl, 3 mM MgCl2, 25 μg/ml BSA). The mixture was incubated in the dark for 1 h at 25°C (PI3Kα and PI3Kδ) or at 30°C (PI3Kβ, PI3Kγ). Next ADP-Glo reagent 1 was added to stop the reaction and remove any remaining ATP. The samples were incubated for 40 min at 25°C. Subsequently the ADP-Glo reagent 2 was added and reactions were incubated for 40 min at 25°C. Finally, luminescence was assessed and the IC50 was calculated.

[1] = tested on: panel of 468 human kinases; test: KINOMEScan broad panel; type: binding; conditions: 1 μM
Protocol: The inhibitor-kinase binding affinity was assessed in KINOMEscan™ assay (Discoverex) according to service provider’s protocol. In brief, in this binding assay the studied compound in solution is incubated with DNA-tagged kinase and kinase active-site directed ligand bound to the beads. The compound competes for binding to kinase with the immobilized ligand. After incubation beads are removed from the solution and kinase bound to ligand is quantified by qPCR. The strength of compound binding is determined based on its ability to block kinase-ligand binding. 11-point 3-fold serial dilution of CPL302-253 was used in order to determine its binding constants (Kd) against different isotypes of class I PI3K. The single concentration of CPL302-253 was used in order to determine its specificity in abroad panel of 468 human kinases. The measure of compounds affinity to each kinase in the panel was the percentage of kinase activity inhibition by tested ligand in comparison to the control.

[2] = tested on: human primary cell cultures and co-cultures; type: cell-based
Protocol: BioMap Profiling study was performed by DiscovereX according to service provider’s protocol. In brief cultures or co-cultures of human primary cells were treated with sets of stimulators specific for cell subsets. […] The expression of biomarkers specific for each system was measured by ELISA and other techniques. The results are shown as log-transformed ratio of the biomarker readouts for the drug-treated sample to vehicle controls. The grey area parallel to the x-axis indicates the 95% significance region calculated based on historical vehicle controls. […]

CD8 T cells = test: CD8 T cell activation, IFNγ production; type: cell-based, human; conditions: for IFNγ release (Fig 3C), single replicates: activated CD8 T cells, 48 h
Protocol: CD8 T cells were isolated from human frozen PBMC using EasySep Human CD8 T cell Isolation Kit (StemCell Technologies) according to manufacturer’s protocol and cultured in AIM V medium (Gibco). To cell culture different concentrations of CPL302-253 were added. The cells were activated with Human T Cell Activation/Expansion Kit (Miltenyibiotec) according to manufacturer’s protocol. IFNγ production was measured after 48 h of activation in culture supernatants using IFNγ Human Uncoated ELISA Kit (Invitrogen) according to manufacturer’s protocol.

neutrophils = test: Neutrophils IL-8 production; type: cell-based, human; conditions: 6 h, 1 μM
Protocol: Neutrophils were isolated using EasySep Direct Human Neutrophil Isolation Kit (StemCell Technologies) from fresh whole blood of healthy donors by magnetic bead isolation according to manufacturer’s protocol. The cells were cultured in AIM V medium (Gibco). After 30 min pre-treatment with CPL302-253 (1 μM) neutrophils were stimulated with Cigarette Smoke Extract (CSE) (Murty Laboratories) at 100 μg/ml or LPS from E. coli O55:B5 (Sigma-Aldrich) at 1 μg/ml. After 6 h of incubation the culture supernatants were collected and IL-8 production was measured using IL-8 Human Uncoated ELISA Kit (Invitrogen) according to manufacturer’s protocol

B cells = test: B lymphocyte activation assay; conditions: for CD25 expression (Fig 3A), single replicates / ki-67 expression (Fig 3B), single replicates: activated B cells
Protocol: B cells were isolated from human frozen PBMCs using EasySep Human CD19 Positive Isolation Kit (StemCell Technologies) according to manufacturers’ protocol. The cells were seeded in AIM V medium (Gibco). […] After 72 hours of culture the cells were stained with antibody againstCD25 (BC96, eBioscience) and ki-67 (Clone 20Raj1, Invitrogen) and analysed on FACSCalibur.

[3] = 72 h, concentration 1 (unit not given)
[4] = 72 h, concentration 10 (unit not given)
[5] = 72 h, concentration 100 (unit not given)
[6] = 72 h, concentration 1000 (unit not given)
[7] = 72 h, concentration 10000 (unit not given)

T1 sequence (O00329 whole entry): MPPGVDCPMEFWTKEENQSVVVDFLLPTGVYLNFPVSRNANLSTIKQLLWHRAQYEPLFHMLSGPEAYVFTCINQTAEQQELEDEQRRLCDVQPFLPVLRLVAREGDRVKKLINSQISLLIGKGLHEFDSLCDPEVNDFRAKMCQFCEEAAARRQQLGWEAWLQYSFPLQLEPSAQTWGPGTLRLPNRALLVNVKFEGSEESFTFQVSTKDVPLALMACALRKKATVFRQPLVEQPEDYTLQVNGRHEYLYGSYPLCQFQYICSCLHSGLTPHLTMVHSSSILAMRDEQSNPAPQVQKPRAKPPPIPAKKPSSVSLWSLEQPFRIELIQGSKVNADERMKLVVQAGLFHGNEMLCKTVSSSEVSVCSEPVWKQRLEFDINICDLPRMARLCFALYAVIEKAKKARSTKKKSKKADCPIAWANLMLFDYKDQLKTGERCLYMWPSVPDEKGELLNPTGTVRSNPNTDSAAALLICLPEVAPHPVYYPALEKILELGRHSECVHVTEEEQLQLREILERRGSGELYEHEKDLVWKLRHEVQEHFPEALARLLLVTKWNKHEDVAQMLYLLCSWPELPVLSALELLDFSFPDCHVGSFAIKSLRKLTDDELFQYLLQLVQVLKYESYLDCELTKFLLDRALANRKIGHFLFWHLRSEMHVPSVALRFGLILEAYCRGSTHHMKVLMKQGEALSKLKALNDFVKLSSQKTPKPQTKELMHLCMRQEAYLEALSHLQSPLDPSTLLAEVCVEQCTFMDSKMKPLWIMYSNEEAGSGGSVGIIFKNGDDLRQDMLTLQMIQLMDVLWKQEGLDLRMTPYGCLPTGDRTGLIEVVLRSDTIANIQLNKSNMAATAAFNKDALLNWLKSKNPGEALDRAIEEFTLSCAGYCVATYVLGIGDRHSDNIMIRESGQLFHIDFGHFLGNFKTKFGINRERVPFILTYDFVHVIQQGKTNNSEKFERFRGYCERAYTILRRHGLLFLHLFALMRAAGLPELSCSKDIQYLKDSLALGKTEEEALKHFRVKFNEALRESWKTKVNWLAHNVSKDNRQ
T1 sequence (P27986 whole entry partner): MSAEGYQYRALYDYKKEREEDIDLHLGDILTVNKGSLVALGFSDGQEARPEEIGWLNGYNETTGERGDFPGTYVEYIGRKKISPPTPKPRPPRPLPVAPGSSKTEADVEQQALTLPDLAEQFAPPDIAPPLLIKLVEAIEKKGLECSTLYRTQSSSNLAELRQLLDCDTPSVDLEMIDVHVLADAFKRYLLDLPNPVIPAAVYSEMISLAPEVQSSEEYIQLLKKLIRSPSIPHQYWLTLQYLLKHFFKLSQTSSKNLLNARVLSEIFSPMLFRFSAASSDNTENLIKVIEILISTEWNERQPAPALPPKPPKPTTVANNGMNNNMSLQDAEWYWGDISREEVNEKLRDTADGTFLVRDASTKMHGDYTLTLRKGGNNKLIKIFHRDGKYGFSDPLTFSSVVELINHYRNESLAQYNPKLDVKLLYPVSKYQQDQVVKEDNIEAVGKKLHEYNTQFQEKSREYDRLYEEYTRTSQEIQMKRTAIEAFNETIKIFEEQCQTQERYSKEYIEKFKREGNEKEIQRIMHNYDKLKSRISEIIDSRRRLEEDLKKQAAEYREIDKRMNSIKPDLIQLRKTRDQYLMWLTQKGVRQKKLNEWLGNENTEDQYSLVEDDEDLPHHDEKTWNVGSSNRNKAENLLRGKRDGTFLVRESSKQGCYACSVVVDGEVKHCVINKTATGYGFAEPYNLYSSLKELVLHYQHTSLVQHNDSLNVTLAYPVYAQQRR

CC(C)(C)N1CCN(Cc2cc3nc(-c4cncc5[nH]ccc45)cc(N4CCOCC4)n3n2)CC1 [CPL302-253]
IC50 (PI3Kδ): 0.0122 µM
inhibition of binding to specific substrate, kinases other than members of PI3K [1]: ≤ 70%
cytotoxic effects in BioMap culture systems [2]: no cytotoxic effects observed
impact on other studied BioMAP systems ([2]; systems other than BT, except PAI-1 in KF3CT): no impact
concentration at which IFNγ production was blocked (CD8 T cells; CD8 T cells after TCR engagement): 1 nM
IFNγ release (Fig 3C), single replicates (CD8 T cells; concentration 1 (unit not given)): 418.61 and 469.87 and 245.35
IFNγ release (Fig 3C), single replicates (CD8 T cells; concentration 10 (unit not given)): 400.4 and 276.31 and 203.71
IFNγ release (Fig 3C), single replicates (CD8 T cells; concentration 100 (unit not given)): 219.02 and 101.31 and 52.94
IFNγ release (Fig 3C), single replicates (CD8 T cells; concentration 10000, first column (unit not printed)): 55.96 and 7.95 and 23.25
IFNγ release (Fig 3C), single replicates (CD8 T cells; concentration 10000, second column (unit not printed)): 155.93 and 70.92 and 72.2
IL-8 release (Fig 4B), single replicates (neutrophils; 1 μg/ml LPS): 471 and 860 and 464
IL-8 release (Fig 4A), single replicates (neutrophils; 100 μg/ml CSE): 378 and 136 and 362
IL-8 production by neutrophils (neutrophils; after CSE or LPS stimulation): reduced IL-8 production
B cell proliferation (ki-67 expression) (B cells; B cells activated with ODN2006 and αIgM F(ab')2, 72 h): blocked also B cell proliferation
concentration at which inhibition of CD25 expression was observed (B cells; B cells after BCR and TLR stimulation, 72 h): 10 nM
CD25 expression (Fig 3A), single replicates (B cells; [3]): 68 and 59 and 72 and 57
ki-67 expression (Fig 3B), single replicates (B cells; [3]): 46 and 43.4 and 77
CD25 expression (Fig 3A), single replicates (B cells; [4]): 52 and 60 and 66 and 49
ki-67 expression (Fig 3B), single replicates (B cells; [4]): 48 and 23.5 and 54
CD25 expression (Fig 3A), single replicates (B cells; [5]): 39 and 31 and 52 and 64 and 48
ki-67 expression (Fig 3B), single replicates (B cells; [5]): 29 and 16.5 and 35
CD25 expression (Fig 3A), single replicates (B cells; [6]): 9 and 22 and 24 and 38 and 20
ki-67 expression (Fig 3B), single replicates (B cells; [6]): 23 and 2.4 and 24
CD25 expression (Fig 3A), single replicates (B cells; [7]): 4 and 3 and 11 and 6
ki-67 expression (Fig 3B), single replicates (B cells; [7]): 5 and 1

Reference: article PMC7377474, “Preclinical characterization of CPL302-253, a selective inhibitor of PI3Kδ, as the candidate for the inhalatory treatment and prevention of Asthma” (PLoS ONE, 2020)
